The source of these data is patent US20100196907A1, “MARKERS TO PREDICT AND MONITOR RESPONSE TO AURORA KINASE B INHIBITOR THERAPY” (ABBOTT LABORATORIES, priority 2009, published 2010).

Experiment [1] concerns SW620 colon carcinoma cells. Briefly: selection of SW620 cells in 1 μM AZD1152 HQPA. Format: cell-based, human. The settings on record: after 5 passages. On the procedure:
All cells were maintained at 37° C. in 5% CO2. […] Less than 0.01% of cells survived this treatment after 5 passages (data not shown). […] In the drug-resistant SW620 derivative (hereafter referred to as SW620^ABCB1/3), ABCB1, which encodes MDR1, was the most highly overexpressed gene on the array, and was identified by two distinct probe sets (FIG. 1A, inset). […] Among the gene set that encodes known small molecule transporters, ABCB1 and ABCB4 are the only two that show highly differential expression (FIG. 1A). The apparent co-upregulation of ABCB1 and ABCB4 was curious given that these genes lie juxtaposed within a common genomic locus on the long arm of chromosome 7 (7q21.1).

The test system of the next experiment is SW620^ABCB1/3 cells. Briefly: histone H3 phosphorylation immunoblot, SW620^ABCB1/3. The experiment is classed as cell-based, human. On the procedure: (§1) SW620 and SW620^ABCB1/3 cells were washed and allowed to grow in drug-free medium overnight. […] The lysates were then probe-sonicated for 10 seconds then clarified by centrifugation at 15,000 g for 15 minutes at 4° C. After treatment with SDS-sample buffer, protein extracts were resolved on NuPAGE Bis-Tris 4-12% gels (Invitrogen (Carlsbad, Calif.)). Samples were electrotransferred to PVDF membranes (Invitrogen (Carlsbad, Calif.)), incubated with primary antibody overnight, and developed using Pierce Dura-Signal chemiluminescence reagents (Pierce, Rockford, Ill.), or Odyssey infrared imaging system from LI-COR Biosciences (Lincoln, Nebr.).

The next experiment has as its system SW620^ABCB1/3 xenografts. Briefly: tumor histone H3 phosphorylation, SW620^ABCB1/3 xenografts. Format: in vivo, mice. On the procedure: as §1, with “Nebr.). C.B.-17 scid-bg (scid-bg) or C.B.-17 scid (scid) mice were obtained from Charles River Laboratories (Wilmington, Mass., USA) at 5-6 weeks of age and used for studies when greater than 8 weeks of age and/or about 20 grams in size. […] Two bisecting diameters were measured with calipers and tumor volumes were estimated from the formula: (length×width^2)/2. […]” for “Nebr.).”

For another experiment, the system named is cell line panel. Briefly: 7-day colony formation or viability, cell line panel. As to conditions: Homo sapiens; most (sensitive) cell lines of the panel. Format: cell-based, human. On the procedure:
(§2) SW620^ABCB1/3 and the respective parental cell lines were washed and 500 cells/well were seeded into six-well plates in drug-free medium. Then, 24 hours later, compounds were diluted in DMEM or RPMI, added to the cells, which were cultured at 37° C. for 7-10 days. Cells were then fixed and stained with 0.2% crystal violet to visualize and count colonies.

A further experiment has as its system SW620^ABCB1/3. Briefly: colony formation, SW620^ABCB1/3. The settings on record: Homo sapiens. Format: cell-based, human. On the procedure:
as §2

A further experiment deals with HCT-15. Briefly: colony formation, HCT-15. Format: cell-based, human. The settings on record: Homo sapiens.

Consider `CCN(CCO)CCCOc1ccc2c(Nc3cc(CC(=O)Nc4cccc(F)c4)[nH]n3)ncnc2c1` [AZD1152 HQPA], for which the “cells that survived treatment” value in experiment [1] is “Less than 0.01%”. Further, the “intrinsic potency (histone H3 phosphorylation)” value in the experiment on SW620^ABCB1/3 cells (SW620^ABCB1/3) is 2000 nM. In addition, the “more drug required to inhibit histone H3 phosphorylation than the parental line” value with SW620^ABCB1/3 cells (SW620^ABCB1/3 vs parental SW620, 90 minutes) is reported as “approximately 100 fold”. For the same compound, the “inhibition of histone H3 phosphorylation in tumors” value in the experiment with SW620^ABCB1/3 xenografts (SW620^ABCB1/3 tumors, single dose 100 mg kg^−1 i.p.) was “transient inhibition”. Also, the “minimum threshold intratumor concentration to inhibit histone H3 phosphorylation” value with SW620^ABCB1/3 xenografts (SW620^ABCB1/3 xenografts, potency x fold loss in 50% (v/v) mouse plasma) is 10 µM. The IC50 in the experiment with cell line panel was 4 to 15 nM; in the experiment on SW620^ABCB1/3, 2000 nM; in the experiment with HCT-15, 1400 nM.
